Laboratory results published in PubChem BioAssay AID602251 (NMMLSC, 2012).
The source made the active and inactive calls.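 How the source made its calls: active means fitted concentration giving half of the maximal binding block below 66 µM; inactive means the rest.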

target: anti-desmoglein 3 scFv antibody binding to human desmoglein 3 (DSG3); assay: blockers of pemphigus antibody–desmoglein 3 interaction – biochemical, DSG3-coupled beads, scFv-GFP, flow cytometry, Cherry Pick 1, dose response (AID 602251); details: not given;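 on binding response, lower = inhibition: 100% = DMSO vehicle binding and 0% = soluble DSG3 blocking control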

SMILES	EC50 [µM]
O=C(O)c1cccc2c1NC(C(=O)O)C1CC(Sc3ccccc3[N+](=O)[O-])C(Cl)C21 (stereo unspecified)	29

same assay, conditions: at 66.1 µM (top of the series)

SMILES	binding response, lower = inhibition
COc1ccc2c(c1)c(N=NC(N)=S)c(O)n2CC(=O)c1ccccc1	inactive
O=C(COc1cccnc1[N+](=O)[O-])Nc1cc(S(=O)(=O)N2CCCCC2)ccc1Cl	inactive
O=C(NCCN1C(=O)S/C(=C\c2ccc(Cl)c(Cl)c2)C1=O)c1cnccn1	inactive
NS(=O)(=O)c1ccc(-c2ccc(/C=C3\SC(=S)N(C4CCS(=O)(=O)C4)C3=O)o2)cc1 (stereo unspecified)	inactive
CCOc1ccccc1NCc1cc(=O)oc2cc(C)c(O)cc12	inactive
COc1ccc(-c2cc(=O)oc3cc(OCC(=O)Nc4ccccn4)ccc23)cc1	inactive
CN(C)c1nc(N)ncc1-c1ccc(Oc2ccccc2)cc1	inactive
O=C(N/N=C1/C(=O)c2cccc3cccc1c23)c1ccc(Cl)cc1	inactive
O=C1NN(c2cccc(Br)c2)C(=O)/C1=C/c1ccc(-c2cc([N+](=O)[O-])ccc2O)o1	inactive
Cc1ccc2oc(-c3ccc(NC(=O)CC(C)C)cc3)nc2c1	inactive
